Assay results from patent US20120015901A1, “METHODS AND PREPARATIONS FOR PROTECTING CRITICALLY ILL PATIENTS” (priority 2009, published 2012).

Assays:
[1] = tested on: wild type yeast (BY4741) and null mutants; test: Yeast chronological aging, survival plating (clonogenicity); assay type: cell-based; details: for Pro-survival effect of spermidine application (compared to WT): 4 mM; for increase of survival: day 20, 4 mM spermidine
Description: Experiments were carried out in BY4741 (MATa his3Δ1 leu2Δ0 met15Δ0 ura3Δ0) and respective null mutants, obtained from Euroscarf. The double mutant Δiki3Δsas3 was generated according to Gueldener at al. (2002) Nucleic Acids Res. 30, e23 by using gene-specific URA3-knockout cassette, amplified by PCR with pUG72 as template (Lovaas & Carlin (1991) Free Radic Biol Med 11, 455-46.). […] All spe1 double mutant strains were obtained through mating and sporulation of BY4741 Δspe1 with the respective BY4742 ([…]) single mutant strains. Single and double mutant strains were verified for correct gene deletion by PCR and further checked for consistent auxotrophies. […] Strains were grown at 28° C. on SC medium containing 0.17% yeast nitrogen base (Difco), 0.5% (NH4)2SO4 and 30 mg/l of all amino acids (except 80 mg/l histidine and 200 mg/l leucine), 30 mg/l adenine, and 320 mg/l uracil with 2% glucose (SCD). […] To construct NHP6A-EGFP in pUG35-Ura (giving rise to a C-terminally tagged chimeric fusion protein under control of the met25-Promotor) the insert was amplified by PCR using genomic DNA from BY4741 as template and cloned into pUG35 using the EcoRI restriction site. The EGFP-ATG8 construct in pUG36-Ura (N-terminally tagged fusion protein) was similarly generated, using EcoRI and ClaI restriction sites.
In case of experiments with Δspe1 (FIG. 24 A-E), all strains were inoculated to 5·10^4 cells/ml. […] Therefore, for calculation of survival rates in experiments using Δiki3Δsas3, cell numbers of each sample were determined after two pulse of sonication on ice with Sonifier 250 from Benson (Duty Cycle: 35; Output Control: 2.5). Tests for apoptotic (TUNEL and Annexin V staining) and necrotic (PI staining) markers as well as markers for oxidative stress (DHE staining) were performed as described in Dod et al. (1982) Eur J Biochem 121, 401-405). For quantifications using flow cytometry (BD FACSAria), 30,000 cells were evaluated and analyzed with BD FACSDiva software. Spermidine (S4139, Sigma, Austria) and putrescine (P5780, Sigma, Austria; 1 mM final concentration) were added to stationary cultures at day 1 of the aging experiments (24 h after inoculation). 1 M aqueous stock solution of spermidine was stored in one use aliquots at −20° C. for no longer than 1 month. For adjustment of extracellular pH (pHex) to 6 (±0.5), the required amount of sodium hydroxide was added 30 h after inoculation. The pHex was maintained at approximately 6 (±0.5) throughout the aging.

C57BL/6 mice = test: Aging mice with spermidine in drinking water; assay type: in vivo
Description: Male and female C57BL/6 mice were purchased from the Institut für Labortierkunde und-genetik, Himberg, Austria. All animals were used at an age between 12 and 16 weeks. All mice were kept and treated according to institutional guidelines and Austrian law and the experiments were approved by the responsible governmental commission. For each group, one male and two female mice were housed singly and fed ad libitum with regular food (pellets) and spermidine was supplemented to drinking water in concentrations of 0.3 and 3 mM for 200 days. Controls were given pure drinking water. Drinking water was replaced every 2-3 days and spermidine freshly added from 1 M aqueous stock (spermidine/HCl pH 7.4), which was kept at −20° C. for no longer than one month. […] At the end of the experiment, the animals were anesthetized by ether inhalation, and exsanguinated by heart puncture. Peripheral blood was allowed to clot for 20 min, and serum was obtained by centrifugation at 200 g for 10 min. The spleens and livers (shock frozen in liquid nitrogen and stored at −80° C. upon further use) were immediately excised. Serum was used for determination of free thiol groups by Ellmans' reaction (Ellman (1959) Arch Biochem Biophys 82, 70-77 and Riener et al. (2002) Anal Bioanal Chem 373, 266-276 (2002).) as described previously (Schraml et al. (2007) Exp Gerontol 42, 1072-1078).
Extraction of polyamines from mice liver tissue was performed according to the freeze/thaw-method described by (Minocha et al. (1994)J Plant Growth Regul 13, 187-193) with slight modifications. […]
Polyamines were determined according to the method described previously by Gianotti et al. (V. Gianotti et al. (2008) J Chromatogr A 1185, 296-300.). […]
Polyamines were detected in MRM mode using following transitions: spermidine (m/z 146->72, CE 34 eV), putrescine (m/z 89->72, CE 28 eV), bis(hexamethylene)-triamine as internal standard (m/z 216->100, CE 36 eV). […]

[2] = tested on: pre-aged wild type yeast cells; test: Stress of pre-aged yeast by heat shock or hydrogen peroxide; assay type: cell-based; details: aged to day 24 with 4 mM spermidine; 4 h, 3 mM H2O2 or 42° C.
Description: Survival of pre-aged wild type cells stressed for 4 h with hydrogen peroxide (3 mM H2O2) or heat shock (42° C.) compared to unstressed cells. Cells were chronologically aged until day 24 with or without addition of 4 mM spermidine. Data represent means±SEM (n=4). *p<0.05 and ***p<0.001. B) Free thiol group concentration (indicative of oxidative stress level) in blood serum of aging mice with or without (control) supplementation of drinking water with 0.3 and 3 mM spermidine for 200 days. Data represent means±SEM (n=3). **p<0.01. (C) Intracellular spermidine of mouse liver cells, obtained from the same mice used for RSH measurements presented in (B). Data represent means±SEM (n=3).

NCCCCNCCCN [spermidine]
chronological life span of polyamine depleted cells [1]: restored | Pro-survival effect of spermidine application (compared to WT) ([1]; deletions image P00002, HDA2, increased in early aging (fast death of controls), BUT diminished or absent day 15 to 25): increased during | Pro-survival effect of spermidine application (compared to WT) ([1]; single deletion of HDA1): not affected | Pro-survival effect of spermidine application (compared to WT) ([1]; single deletions image P00004, RXT2, SDS3, SAP30): not affected | Pro-survival effect of spermidine application (compared to WT) ([1]; single deletions image P00005, HDA3, HOS1, HOS2, HOS3, HOS4, RPD3, PHO23, SIR2, HST1, HST2, SET3, SIF2): not affected | Pro-survival effect of spermidine application (compared to WT) ([1]; single deletions shown as image P00001, survival increased during early aging): reduced | Pro-survival effect of spermidine application (compared to WT) ([1]; single deletions shown as image P00003, during early aging (day 5 to 15)): slightly reduced | increase in yeast life span ([1]; BY4741 wild type, spermidine supplied at day 1 (4 mM)): up to 4 times | ability of spermidine to extend the chronological life span ([1]; deletion of SIR2): did not abrogate | longevity upon spermidine application ([1]; single deletion of HST1, HST2, HST3, HST4): did not affect longevity | increase of survival ([1]; wild type cells): 5 fold | anti-aging (pro-survival) effect of spermidine ([1]; Δiki3 and Δsas3 strains): partially abrogated | increase of survival ([1]; Δiki3Δsas3 cells): 1.3 fold | ROS accumulation and survival during aging ([1]; Δsod2 mutant cells, 4 mM spermidine): temporarily protects from excessive ROS accumulation and loss of survival | increase of serum level of free thiol groups (C57BL/6 mice; 3 mM spermidine in drinking water for 200 days): ~30% | food and body weight (C57BL/6 mice; 0.3 and 3 mM in drinking water, 200 days (data not shown)): remained unaffected | intracellular spermidine levels in liver cells (C57BL/6 mice; spermidine in drinking water, 200 days): significantly increased | resistance against stress inflicted by heat shock or H2O2 treatment [2]: strong resistance
